Results: patent publication US7794987B2, “Method for treating central neuropathic pain” (UCB Pharma GmbH, priority 2003, dated 2010)

Experiments:
[1] = test system: spinally injured rats; experiment: Single dose of SPM 927 on allodynia-like behaviours in spinally injured rats (von Frey hairs, brushing, cold); type: in vivo, Sprague-Dawley rats; settings: intraperitoneally
Protocol: (§1) Male and female Sprague-Dawley rats (Möllegard, Denmark) weighing 200-250 g at the start of the experiments were used.
(§2) Ischemic spinal cord injury was produced in female rats according to methods described previously (Xu et al., 1992). In brief, the rats were anesthetized with chloral hydrate (300 mg/kg, i.p.) and a midline incision was made on the skin overlying vertebral segments T12-L1. The animals were positioned beneath an argon laser beam and irradiated for 10 min with the beam directed towards vertebral segment T12 or T13 (spinal segments L3-5). Immediately prior to and 5 min after the start of the irradiation, erythrosin B (Red No 3, Aldrich-Chemie, Steinheim, Germany) dissolved in 0.9% saline was injected intravenously through the tail vein at a dose of 32.5 mg/kg. A tunable argon ion laser (Innova model 70, Coherent Laser Product Division, Palo Alto, Calif.) operating at 514 nm was used. The average beam output power was 160 mW. The beam covered the entire width of the vertebra and the length of the beam was 1-2 mm. After irradiation, the wound was closed in layers and the rats were allowed to recover. The bladder was emptied manually for 1 week.
(§3) The vocalization threshold to graded mechanical touch/pressure stimuli were tested with von Frey hairs. During testing the rats were gently restrained in a standing position and the von Frey hair was pushed onto the skin until the filament became bent. The frequency of stimulation was about 1/s and at each intensity the stimulus was applied 5-10 times. The intensity of stimulation which induced consistent vocalization (>75% response rate) was considered as pain threshold.
(§4) The response of rats to brushing stimulation was tested with the blunt point of a pencil gently stroking the skin on the trunk in a rostro-caudal direction. The frequency of the stimulation was about 1/s and responses were graded with a score of 0=no observable response; 1=transient vocalization and moderate effort to avoid probe; 2=consistent vocalization and aversive reactions and 3=sustained and prolonged vocalization and aggressive behaviours.
(§5) Response to cold was tested with ethyl chloride spray applied to the shaved allodynic skin area. The response was graded with a score of 0=no observable response; 1=localized response (skin twitch and contraction), no vocalization; 2=transient vocalization, moderate struggle and 3=sustained vocalization and aggression.
(§6) SPM 927 was dissolved in physiological saline and injected intraperitoneally. The data for von Frey hairs, brushing and cold are expressed as median±median absolute deviation (M.A.D.) and analysed with Wilcoxon signed-ranks test or paired t-test.

[2] = test system: spinally injured rats; experiment: Repeated administration of SPM 927 in spinally injured rats (von Frey hairs, brushing, cold); type: in vivo, Sprague-Dawley rats; settings: 20 mg/kg twice a day
Protocol: as §1, §2, §3, §4, §5, §6
The animals were injected with 20 mg/kg SPM 927 twice a day. The pre-drug response and the response 1 h after injection were assessed in the morning session. […] The normalization of basal sensitivity lasted at least 8 days without signs of tolerance.

Structure (SMILES): COC[C@@H](NC(C)=O)C(=O)NCc1ccccc1 [SPM 927, (R)-2-acetamide-N-benzyl-3-methoxypropionamide]
- effect on mechanical and cold allodynia ([1]; 10 mg/kg): no effect
- effect on mechanical and cold allodynia ([1]; 15 mg/kg): partially alleviated mechanical and cold allodynia in the majority, but not all, rats
- effect on brushing and cold ([1]; 15 mg/kg, FIG. 1B, C): significant effect
- increase in threshold to stimulation with von Frey hairs ([1]; 15 mg/kg, FIG. 1a): significant, but did not return to normal level
- duration of complete reversal of mechanical and cold allodynia ([1]; 20 mg/kg): about 2 h
- effect on mechanical and cold allodynia ([1]; 20 mg/kg): completely reversed mechanical and cold allodynia in all rats
- vocalization threshold to von Frey hair stimulation 1 h after injection ([2]; days 1-3): increase in vocalization threshold
- allodynia to stimulation with von Frey hairs and cold after discontinuation ([2]; discontinued after day 7): reappeared on day 9
- effect on brush stimulation after discontinuation ([2]; discontinued after day 7): maintained up to day 11
- pre-drug response to von Frey hair stimulation ([2]; FIG. 2A): normalized on day 4
- baseline responses to brushing and cold ([2]; FIG. 2B, 2C): normalized from day 2 to day 6 respectively
- duration of normalization of basal sensitivity ([2]; without signs of tolerance): at least 8 days
